Reference: publication PMC7461115, “Contribution of KCNQ and TREK Channels to the Resting Membrane Potential in Sympathetic Neurons at Physiological Temperature” (International Journal of Molecular Sciences, 2020)

Columns and labels:
[1] = target: T1, TREK-2 (expressed in HEK293) (Mus musculus, UniProt Q8BUW1); experiment: patch clamp of transfected HEK293 cells, inhibition of riluzole-evoked current
T1 construct: gene Kcnk10
T1 sequence (Q8BUW1 1-535): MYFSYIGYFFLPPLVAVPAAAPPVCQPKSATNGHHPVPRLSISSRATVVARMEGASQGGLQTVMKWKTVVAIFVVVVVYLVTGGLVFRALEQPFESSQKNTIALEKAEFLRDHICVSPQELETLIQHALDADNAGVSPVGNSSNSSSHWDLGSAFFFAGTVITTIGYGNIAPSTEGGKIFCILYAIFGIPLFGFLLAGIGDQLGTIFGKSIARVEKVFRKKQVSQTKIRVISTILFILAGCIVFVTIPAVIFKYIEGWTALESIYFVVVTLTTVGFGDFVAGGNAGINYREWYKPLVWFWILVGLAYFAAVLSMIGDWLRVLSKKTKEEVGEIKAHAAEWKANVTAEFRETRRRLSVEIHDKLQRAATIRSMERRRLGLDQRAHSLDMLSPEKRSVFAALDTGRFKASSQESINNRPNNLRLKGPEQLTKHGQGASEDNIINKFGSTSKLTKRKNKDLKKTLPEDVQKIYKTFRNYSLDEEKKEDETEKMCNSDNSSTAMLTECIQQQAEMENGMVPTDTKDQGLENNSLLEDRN

[2] = target: T2, TREK-2 (native riluzole-activated current IRIL in mouse SCG neurons) (Mus musculus, UniProt Q8BUW1); experiment: perforated-patch whole-cell voltage clamp, inhibition of riluzole-activated current; format: cell-based; details: riluzole 300 µM activator, TEA 15 mM, TTX 0.5 µM, CsCl 1 mM, -30 mV, room temperature, Hill coefficient 0.78
T2 construct: gene Kcnk10; TREK-1 and TRAAK are also expressed at lower level

Compound	inhibition at 1 µM ([1]; HEK293, read-out: % inhibition at 1 μM)	IC50 [2]	inhibition at 0.3 µM ([1]; HEK293, read-out: % inhibition at 300 nM)
O=C1c2ccccc2C(Cc2ccncc2)(Cc2ccncc2)c2ccccc21 [XE991]	73.8 ± 1.93%	–	–
O=C1N(c2ccccc2)c2ccccc2C1(Cc1ccncc1)Cc1ccncc1 [linopirdine]	–	310 ± 60 nM	65.5 ± 5.93%
